According to ChEMBL document CHEMBL1151581, “New dipeptide isosteres useful for the inhibition of HIV-1 protease” (Bioorg Med Chem Lett, 1994):
pIC50: −log10 of the molar value.

Tests used:
CCRF-CEM = assay: Concentration required for antiviral activity using infected CEM cells; type: functional, cell-based; conditions: Homo sapiens
[1] = target: Human immunodeficiency virus type 1 protease (Human immunodeficiency virus 1, UniProt Q72874); assay: Concentration required for in vitro inhibition of HIV-1 protease

Row | SMILES | pIC50 (CCRF-CEM) | pIC50 [1]
1 | Cc1ccc(C[C@@H](O)[C@H](Cc2ccccc2)NC(=O)[C@H](CC(N)=O)NC(=O)c2ccc3ccccc3n2)c(C(=O)NC(C)(C)C)c1 | 7.70 | 
2 | CC(C)(C)NC(=O)c1cc2ccccc2cc1C[C@@H](O)[C@H](Cc1ccccc1)NC(=O)[C@H](CC(N)=O)NC(=O)c1ccc2ccccc2n1 | 6.01 | 6.83
3 | CC(C)(C)NC(=O)c1c(C[C@@H](O)[C@H](Cc2ccccc2)NC(=O)[C@H](CC(N)=O)NC(=O)c2ccc3ccccc3n2)ccc2ccccc12 | 6.72 | 8.46
4 | Cc1ccc(C(=O)NC(C)(C)C)c(C[C@@H](O)[C@H](Cc2ccccc2)NC(=O)[C@H](CC(N)=O)NC(=O)c2ccc3ccccc3n2)c1 | 6.21 | 8.66
5 | Cc1cccc(C[C@@H](O)[C@H](Cc2ccccc2)NC(=O)[C@H](CC(N)=O)NC(=O)c2ccc3ccccc3n2)c1C(=O)NC(C)(C)C | 6.04 | 7.55
